Results on 1 compound are retold here after patent publication US9180107B2 (NANOPHARMACEUTICALS LLC, priority 2009, dated 2015).

SMILES strings stand for the structures. Where two headings read alike, the source gives them in different places. Marks after values point to notes of the source that are not given here.

Format in all cases: cell-based
For data set [1], the system named is human breast cancer MDA-MB-231 cells (MDA-MB). Put plainly: Anti-proliferation (total cell counts) in bellows cell culture system with pharmacodynamic modeling. To be noted: for IC50 / Imaxk (maximum effect on rate of growth) / ImaxR (maximum effect on success of replication): MDA-MB 231. The method, then:
Each cell culture system is a compressible (bellows) 500 mL bottle which contains cell culture medium and specially-treated polymer flakes to which cells spontaneously attach and grow. Through moving bellows and porous membranes, the level of the medium in the bottle changes periodically. Consequently, the cells are alternately submerged in the culture medium, then exposed to 5% CO2/95% air which creates a dynamic interface between air and medium on the cell surface that maximizes nutrient uptake and oxygen transfer. The system provides a low shear, high aeration and foam-free culture environment. Proprietary treatment of the surfaces of the flakes enables seating and harvesting of cells and secreted proteins are readily isolated from the perfusate.
In a non-perfusion bellows cell culture system that was also used, the medium in each bottle was replaced by fresh medium every 24 h. In the perfusion bellows cell culture system, medium was progressively refreshed over 24 h, i.e., one complete change of medium occurred over 24 h.
In establishing the system, 5×10^7 cells were seeded in perfusion and non-perfusion bellows bottles and incubated overnight at 37° C. After that, flakes were harvested, trypsinized and cells were collected. Cell numbers were counted. […] For experiments, the perfusion bellows cell culture system was run for 2 d prior to starting experiments. […] Cell cultures were then exposed to 1% FBS-containing medium. Tetrac or nano-tetrac was added to the medium in the reservoir bottle to achieve the final concentrations reported for each experiment.
The time course of cell counts of the various cancer lines treated with different concentrations of tetrac or nano-tetrac was modeled by utilizing the pooled approach in NONMEM VI (version 6.2). All time points and treatment arms within each experiment were modeled simultaneously. A mechanism-based model (see Bulitta et al., 2009. Antimicrob. Agents Chemother. 53:46-56) was adapted to describe the proliferation of cancer cells and the inhibition of proliferation by tetrac. This model assumes two populations of cells in different phases of the cell cycle: cells that are preparing for replication (phase 1) and cells that are immediately “pre-replication” (phase 2). Cells transition from phase 1 to phase 2 by a first-order growth rate constant, while replication from phase 2 to phase 1 is assumed to be fast (see FIG. 2).
[formula] [formula] [formula] where C1 is the number of cells in phase 1, C2 the number of cells in phase 2, k21 the first order rate constant for replication (transition from phase 2 to phase 1), and k12 the first-order growth rate constant for transition from phase 1 to phase 2. The total number of cells Ct is the sum of C1 and C2. Rep is the replication efficiency factor which is described by:
[formula] where Cmax is the maximum number of cells. Without tetrac, the replication efficiency factor approaches 2, which reflects a 100% probability of successful replication. InhR describes the inhibitory effect of tetrac on the probability of successful replication:
[formula] Where ImaxR is the maximum effect of tetrac on probability of successful replication and IC50R is the tetrac concentration needed to achieve a half-maximal effect. Inhk describes the inhibitory effect of tetrac on the rate of growth:
[formula] Where Imaxk is the maximum effect of tetrac on rate of growth and IC50k is the tetrac concentration needed to achieve a half-maximal effect. Results

The test system of data set [2] is human embryonic kidney 293T cells. The data set can be described thus: Proliferation of non-malignant cells. To be noted: 10^−6M daily for 7 days. The method, then: FIG. 9 is a series of graphs showing the comparison of nano-tetrac and tetrac on cell proliferation in non-malignant cells. CV-1 cells (FIG. 9A) and 293 T cells (FIG. 9B) were treated daily with 10^−6 M tetrac or nano-tetrac. Cells were harvested at the time points indicated. Total cell numbers taken after each treatment were used as an indicator for tetrac- or nano-tetrac-induced anti-proliferation.
In order to confirm that tetrac and nano-tetrac only suppress cell proliferation in cancer cells, tetrac and nano-tetrac were also examined for potential anti-proliferative effects on immortalized non-malignant cells, using monkey kidney epithelial CV-1 cells and human embryonic kidney 293T cells. The cells were treated daily with either 10^−6M tetrac or 10^−6M nano-tetrac for 7 days, then were harvested, counted and examined microscopically.

Data set [3] concerns Human adenoid cystic carcinoma TGS112T cells. Put plainly: [3H]-thymidine incorporation. The method, then: TGS112T cells were seeded in 24-well trays and exposed to 10% hormone-depleted FBS-supplemented medium for 2 d, then treated with 0.25% hormone-depleted FBS-supplemented medium prior to starting the experiments. Aliquots of cells were treated with T4, tetrac or nano-tetrac as indicated, as well as 1 μCi [^3H]-thymidine (final concentration, 13 nM) for 24 h. Cells were then washed twice with cold PBS. TCA (5%, 1 mL) was added and the plate was held at 4° C. for 30 min. The precipitate was washed twice with cold ethanol; 2% SDS (1 mL) was added to each well and the TCA-precipitable radioactivity was quantitated in a liquid scintillation counter.
(§1) Human adenoid cystic carcinoma TGS112T cells were cultured in medium that contained 0.25% hormone-stripped serum for 2 d and then treated with 10^−7 M tetrac or nano-tetrac for 30 min prior institution of 10^−7 M T4 treatment for 24 h. Nuclear proteins were separated by SDS-PAGE followed by western blot analysis with proliferating-cell nuclear antigen (PCNA) antibody. Thyroid hormone-induced PCNA accumulation was inhibited by tetrac. (See FIG. 6A). […] (See FIG. 6A). Inhibition of thyroid hormone-induced proliferation was confirmed by inhibition by tetrac and nano-tetrac of thyroid hormone-induced accumulation and [^3H]-thymidine incorporation. (See FIG. 6B). […] (See FIG. 6B). […] The effect of nano-tetrac and tetrac on cell proliferation was examined by counting TGS112T cells which were treated daily with 10^−6 M tetrac or 10^−6 M nano-tetrac. […] (See FIG. 6C).
For orientation: Dividing cells build labelled thymidine or BrdU into new DNA.

The test system is the same in data set [4]. Put plainly: PCNA western blot (thyroid hormone-induced proliferation).
Excerpt: The techniques have been described in a number of publications. (See Davis et al., 2006. Cancer Res. 66:7270-7275; Lin et al., 2007. Steroids. 72:180-187; Lin et al., 2008. Carcinogenesis. 29:62-69; and Davis et al., 2004. Circ Res. 94:1500-1506, each of which is herein incorporated by reference in its entirety). Nucleoproteins were separated on discontinuous SDS-PAGE (9% gels) and the proteins transferred by electroblotting to nitrocellulose membranes (Millipore, Bedford, Mass.). After blocking with 5% milk in Tris-buffered saline containing 0.1% Tween, the membranes were incubated with selected primary antibodies overnight. The secondary antibodies were either goat anti-rabbit IgG (1:1000, Dako, Carpenteria, Calif.) or rabbit anti-mouse IgG (1:1000, Dako), depending upon the origin of the primary antibody. Immunoreactive proteins were then detected by chemiluminescence.
as §1

Setting [5] is: study 2, rich data from one single study over 19 days.

Turning to `O=C(O)Cc1cc(I)c(Oc2cc(I)c(O)c(I)c2)c(I)c1` [tetrac, Tetraiodothyroacetic acid], the IC50 in data set [1] (Homo sapiens, 456 h, study 2, rich data from one single study over 19 days, read-out: IC50R (effect on success of replication)) was found to be 0.087 µM; in data set [1] (Homo sapiens, 456 h, study 2, rich data from one single study over 19 days, read-out: IC50k (effect on rate of growth)), 5.1 µM; in data set [1] (Homo sapiens, study 1, sparse sampling, data pooled from two studies, read-out: IC50R (effect on success of replication)) it was 4.4 µM; in data set [1] (Homo sapiens, study 1, sparse sampling, data pooled from two studies, read-out: IC50k (effect on rate of growth)), 0.0076 µM. For the same compound, in data set [1] (Homo sapiens, MDA-MB-231, 192 h, read-out: inhibitory effect on cell growth), the inhibition at 0.1 µM stood at 38%. In addition, the “Imaxk (maximum effect on rate of growth)” value turned out to be 0.19 in data set [1] (study 1, sparse sampling, data pooled from two studies) and 0.85 in data set [1] (setting [5]). Further, the “ImaxR (maximum effect on success of replication)” value in data set [1] (study 1, Imax at time = 0, decreases with time) is 0.53^a; in data set [1] (setting [5]) it was 0.20. In data set [2], the “change in cell numbers and morphology vs untreated control” value is “no significant change”. Besides, in data set [3] (10^−7 M with 10^−7 M T4, 24 h), the “reduction of T4-induced thymidine incorporation” value was determined as 5 fold. Moreover, in data set [3] (10^−7 M, 24 h), the “effect of agent alone on thymidine incorporation” value is given as “stimulated thymidine incorporation”. Moreover, the “Thyroid hormone-induced PCNA accumulation” value in data set [4] (10^−7 M tetrac, 10^−7 M T4, 24 h) was “inhibited”. Besides, the “Proliferation of TGS112T cells (agent alone)” value in data set [4] (10^−7 M, 24 h) is “little effect alone”.
